Earlier results in patent publication US20090285877A1, “Percutaneous absorption preparation containing palonosetron” (HISAMITSU PHARMACEUTICAL CO., INC.,, priority 2008, published 2009).

Molecular target: T1, 5-HT3 receptor (Homo sapiens, UniProt P46098)
T1 sequence (P46098 24-478): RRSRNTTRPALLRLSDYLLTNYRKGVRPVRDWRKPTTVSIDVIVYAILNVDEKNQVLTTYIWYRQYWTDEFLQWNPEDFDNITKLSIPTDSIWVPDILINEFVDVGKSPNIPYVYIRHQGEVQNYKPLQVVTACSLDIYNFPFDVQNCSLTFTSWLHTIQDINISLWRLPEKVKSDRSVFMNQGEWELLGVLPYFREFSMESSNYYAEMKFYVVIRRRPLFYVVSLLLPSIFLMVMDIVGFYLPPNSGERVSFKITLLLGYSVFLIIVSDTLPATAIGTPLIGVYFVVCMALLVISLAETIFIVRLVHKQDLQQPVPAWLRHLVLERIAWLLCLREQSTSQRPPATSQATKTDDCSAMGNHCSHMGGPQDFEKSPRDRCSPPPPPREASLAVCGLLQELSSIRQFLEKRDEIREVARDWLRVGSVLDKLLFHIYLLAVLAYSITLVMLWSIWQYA

Cl.O=C1c2cccc3c2[C@H](CCC3)CN1[C@@H]1CN2CCC1CC2 [Palonosetron hydrochloride, (3aS)-2-[(S)-1-azabicyclo[2.2.2]oct-3-yl]-2,3,3a,4,5,6-hexahydro-1-oxo-1H-1Hbenz[de]isoquinoline hydrochloride]
binding affinity for 5-HT3 receptor: high binding affinity
